Results taken from patent US10344049B2, “Substituted steroids for the treatment of cancer” (AQUAVAN TECHNOLOGY CO., LTD., priority 2017, dated 2019).
Read-outs that look alike come from different tables or passages of the source.

Assays:
Type in all cases: cell-based
[1] = test system: human Glioblastoma cells U87-MG; test: Cell viability test (Resazurin), U87-MG cells; design: evaluation of ability to inhibit cell growth activity (IC50): scale not given here; conditions: for evaluation of ability to inhibit cell growth activity (IC50): grade of the IC50 of Table 2
Experimental: (§1) Cell viability was determined with Resazurin (at a final concentration of 25 μg/mL).

[2] = test system: human leukemia cells U937; test: Cell viability test (Resazurin), U937 cells
Experimental: as §1

[3] = test system: human colorectal cancer cells SW-480; test: Cell viability test (Resazurin), SW480 cells; design: evaluation of ability to inhibit cell growth activity (IC50): scale not given here
Experimental: as §1

[4] = test system: human breast cancer cells MDA-MB-468; test: Cell viability test (Resazurin), MDA-MB-468 cells
Experimental: as §1

[5] = test system: human liver cancer cells Mahlavu; test: Cell viability test (Resazurin), Mahlavu cells; conditions: for evaluation of ability to inhibit cell growth activity (IC50): grade of the IC50 of Table 2
Experimental: as §1

[6] = test system: African green monkey kidney cells Vero; test: Cell viability test (Resazurin), Vero cells
Experimental: as §1

[7] = test system: human lung cancer cells A549; test: Cell viability test (Resazurin), A549 cells; design: evaluation of ability to inhibit cell growth activity (IC50): scale not given here
Experimental: as §1

[8] = test system: human breast cancer cells MDA-MB-231; test: Cell viability test (Resazurin), MDA-MB-231 cells; design: evaluation of ability to inhibit cell growth activity (IC50): scale not given here
Experimental: as §1

[9] = Homo sapiens, U-87 MG, 48 h, 0.1% FCS, Resazurin, read-out: inhibitory concentrations of cell growth activity IC50
[10] = Homo sapiens, U-87 MG, grade of the IC50 of Table 2, read-out: evaluation of ability to inhibit cell growth activity (IC50)
[11] = Homo sapiens, U-937, 48 h, U937 cells, 48 hours, 0.1% FCS, Resazurin, read-out: inhibitory concentrations of cell growth activity IC50
[12] = Homo sapiens, U-937, U937 cells, grade of the IC50 of Table 2, read-out: evaluation of ability to inhibit cell growth activity (IC50)
[13] = Homo sapiens, SW480, 48 h, SW480 cells, 48 hours, 0.1% FCS, Resazurin, read-out: inhibitory concentrations of cell growth activity IC50
[14] = Homo sapiens, SW480, SW480 cells, grade of the IC50 of Table 2, read-out: evaluation of ability to inhibit cell growth activity (IC50)
[15] = SW480 cells, grade of the IC50 of Table 2
[16] = Homo sapiens, MDA-MB-468, 48 h, MDA-MB-468 cells, 48 hours, 0.1% FCS, Resazurin, read-out: inhibitory concentrations of cell growth activity IC50
[17] = Homo sapiens, MDA-MB-468, MDA-MB-468 cells, grade of the IC50 of Table 2, read-out: evaluation of ability to inhibit cell growth activity (IC50)
[18] = MDA-MB-468 cells, grade of the IC50 of Table 2
[19] = Homo sapiens, Mahlavu, 48 h, 0.1% FCS, Resazurin, read-out: inhibitory concentrations of cell growth activity IC50
[20] = Homo sapiens, Mahlavu, grade of the IC50 of Table 2, read-out: evaluation of ability to inhibit cell growth activity (IC50)
[21] = Chlorocebus sabaeus, Vero, 48 h, 0.1% FCS, Resazurin, read-out: inhibitory concentrations of cell growth activity IC50
[22] = Chlorocebus sabaeus, Vero, grade of the IC50 of Table 2, read-out: evaluation of ability to inhibit cell growth activity (IC50)
[23] = Homo sapiens, A549, 48 h, A549 cells, 48 hours, 0.1% FCS, Resazurin, read-out: inhibitory concentrations of cell growth activity IC50
[24] = Homo sapiens, A549, A549 cells, grade of the IC50 of Table 2, read-out: evaluation of ability to inhibit cell growth activity (IC50)
[25] = Homo sapiens, MDA-MB-231, 48 h, MDA-MB-231 cells, 48 hours, 0.1% FCS, Resazurin, read-out: inhibitory concentrations of cell growth activity IC50
[26] = Homo sapiens, MDA-MB-231, MDA-MB-231 cells, grade of the IC50 of Table 2, read-out: evaluation of ability to inhibit cell growth activity (IC50)
[27] = 48 hours, 0.1% FCS, Resazurin, read-out: inhibitory concentrations of cell growth activity IC50
[28] = grade of the IC50 of Table 2, read-out: evaluation of ability to inhibit cell growth activity (IC50)
[29] = U937 cells, 48 hours, 0.1% FCS, Resazurin, read-out: inhibitory concentrations of cell growth activity IC50
[30] = U937 cells, grade of the IC50 of Table 2, read-out: evaluation of ability to inhibit cell growth activity (IC50)
[31] = SW480 cells, 48 hours, 0.1% FCS, Resazurin, read-out: inhibitory concentrations of cell growth activity IC50
[32] = MDA-MB-468 cells, 48 hours, 0.1% FCS, Resazurin, read-out: inhibitory concentrations of cell growth activity IC50
[33] = A549 cells, 48 hours, 0.1% FCS, Resazurin, read-out: inhibitory concentrations of cell growth activity IC50
[34] = A549 cells, grade of the IC50 of Table 2, read-out: evaluation of ability to inhibit cell growth activity (IC50)
[35] = MDA-MB-231 cells, 48 hours, 0.1% FCS, Resazurin, read-out: inhibitory concentrations of cell growth activity IC50
[36] = MDA-MB-231 cells, grade of the IC50 of Table 2, read-out: evaluation of ability to inhibit cell growth activity (IC50)
[37] = SW480 cells, grade of the IC50 of Table 2, read-out: evaluation of ability to inhibit cell growth activity (IC50)
[38] = MDA-MB-468 cells, grade of the IC50 of Table 2, read-out: evaluation of ability to inhibit cell growth activity (IC50)

Structure (SMILES)	IC50 [1, 9] [µM]	IC50 [1, 10] [µM]	IC50 [2, 11] [µM]	IC50 [2, 12] [µM]	IC50 [3, 13] [µM]	IC50 [3, 14] [µM]	IC50 [4, 16] [µM]	IC50 [4, 17] [µM]	IC50 [5, 19] [µM]	IC50 [5, 20] [µM]	IC50 [6, 21] [µM]	IC50 [6, 22] [µM]	IC50 [7, 23] [µM]	IC50 [7, 24] [µM]	IC50 [8, 25] [µM]	IC50 [8, 26] [µM]	IC50 [1, 27] [µM]	IC50 [1, 28] [µM]	IC50 [2, 29] [µM]	IC50 [4, 32] [µM]	further results
CC(=O)O[C@H]1CC[C@@H]2C(=C[C@H](O)[C@@H]3[C@@]2(C=O)CC[C@]2(C)[C@@H]([C@H](C)C[C@H](C=C(C)C)OC(C)=O)CC[C@@]32C)C1(C)C [Compound 6]	23.4	16 to 64	1.57	< 8	14.9	8 to 16	14	8 to 16	16.2	16 to 64	23.1	16 to 64	5.43	< 8	23.5	16 to 64					evaluation of ability to inhibit cell growth activity (IC50) [3, 15]: ◯; evaluation of ability to inhibit cell growth activity (IC50) [4, 18]: ◯
CC(=O)O[C@H]1C=C2[C@@H](CC[C@H](O)C2(C)C)[C@]2(C=O)CC[C@]3(C)[C@@H]([C@H](C)C[C@H](C=C(C)C)OC(C)=O)CC[C@@]3(C)[C@H]12 [Compound 7]	8.51	8 to 16	5.52	< 8	13.5	8 to 16	13.9	8 to 16	11.9	8 to 16	23.2	16 to 64	6.26	< 8	6	< 8					evaluation of ability to inhibit cell growth activity (IC50) [1]: ◯; evaluation of ability to inhibit cell growth activity (IC50) [3, 15]: ◯; evaluation of ability to inhibit cell growth activity (IC50) [4, 18]: ◯; evaluation of ability to inhibit cell growth activity (IC50) [5]: ◯
CC(=O)O[C@H]1C=C2[C@@H](CC[C@H](O)C2(C)C)[C@]2(C=O)CC[C@]3(C)[C@@H]([C@H](C)C[C@@H](O)C=C(C)C)CC[C@@]3(C)[C@H]12 [Compound 8]																	7.54	< 8	5.39	9.81	IC50 [2, 30]: < 8 µM; IC50 [3, 31]: 13.8 µM; evaluation of ability to inhibit cell growth activity (IC50) [3, 15]: ◯; evaluation of ability to inhibit cell growth activity (IC50) [4, 18]: ◯; IC50 [5, 27]: 11.5 µM; evaluation of ability to inhibit cell growth activity (IC50) [5]: ◯; IC50 [6, 27]: 24.2 µM; IC50 [6, 28]: 16 to 64 µM; IC50 [7, 33]: 4.86 µM; IC50 [7, 34]: < 8 µM; IC50 [8, 35]: 5.19 µM; IC50 [8, 36]: < 8 µM
CC(=O)O[C@H]1C=C2[C@@H](CC[C@H](O)C2(C)C)[C@]2(C=O)CC[C@]3(C)[C@@H]([C@H](C)C/C=C/C(C)(C)O)CC[C@@]3(C)[C@H]12 [Compound 9]	15.6	8 to 16	11.2	8 to 16	31.8	16 to 64	26.8	16 to 64	5.07	< 8	25.9	16 to 64	24.4	16 to 64	18.3	16 to 64					evaluation of ability to inhibit cell growth activity (IC50) [1]: ◯; evaluation of ability to inhibit cell growth activity (IC50) ([2]; U937 cells, grade of the IC50 of Table 2): ◯
CC(=O)O[C@@H](C=C(C)C)C[C@@H](C)[C@H]1CC[C@@]2(C)[C@@H]3[C@@H](O)C=C4[C@@H](CC[C@H](O)C4(C)C)[C@]3(C=O)CC[C@]12C [Compound 10]	10.7	8 to 16	5.92	< 8	17.9	16 to 64	20.3	16 to 64	19.4	16 to 64	19.2	16 to 64	9.81	8 to 16	10.7	8 to 16					evaluation of ability to inhibit cell growth activity (IC50) [1]: ◯; evaluation of ability to inhibit cell growth activity (IC50) ([7]; A549 cells, grade of the IC50 of Table 2): ◯; evaluation of ability to inhibit cell growth activity (IC50) ([8]; MDA-MB-231 cells, grade of the IC50 of Table 2): ◯
CC(C)=CC(=O)C[C@@H](C)[C@H]1CC[C@@]2(C)[C@@H]3[C@@H](O)C=C4[C@@H](CC[C@H](O)C4(C)C)[C@]3(C=O)CC[C@]12C [Compound 11]	> 256	> 256	84.2	64 to 256	> 256	> 256	> 256	> 256	> 256	> 256	> 256	> 256	> 256	> 256	> 256	> 256					
CC(C)=C[C@@H](C[C@@H](C)[C@H]1CC[C@@]2(C)[C@@H]3[C@@H](O)C=C4[C@@H](CC[C@H](O)C4(C)C)[C@]3(C=O)CC[C@]12C)O[C@@H]1O[C@H](CO)[C@@H](O)[C@H](O)[C@H]1O [Compound 12]																	49	16 to 64	58.6	56.5	IC50 [2, 30]: 16 to 64 µM; IC50 [3, 31]: 98.6 µM; IC50 [3, 37]: 64 to 256 µM; IC50 [4, 38]: 16 to 64 µM; IC50 [5, 27]: 70.3 µM; IC50 [5, 28]: 64 to 256 µM; IC50 [6, 27]: 124 µM; IC50 [6, 28]: 64 to 256 µM; IC50 [7, 33]: 100 µM; IC50 [7, 34]: 64 to 256 µM; IC50 [8, 35]: 41.7 µM; IC50 [8, 36]: 16 to 64 µM
CC(C)=C[C@H](O)C[C@@H](C)[C@H]1CC[C@@]2(C)[C@@H]3[C@@H](O[C@@H]4O[C@H](CO)[C@@H](O)[C@H](O)[C@H]4O)C=C4[C@@H](CC[C@H](O)C4(C)C)[C@]3(C=O)CC[C@]12C [Compound 13]																	103	64 to 256	32.5	58.3	IC50 [2, 30]: 16 to 64 µM; IC50 [3, 31]: 67.2 µM; IC50 [3, 37]: 64 to 256 µM; IC50 [4, 38]: 16 to 64 µM; IC50 [5, 27]: > 256 µM; IC50 [5, 28]: > 256 µM; IC50 [6, 27]: > 256 µM; IC50 [6, 28]: > 256 µM; IC50 [7, 33]: 198 µM; IC50 [7, 34]: 64 to 256 µM; IC50 [8, 35]: 59.4 µM; IC50 [8, 36]: 16 to 64 µM
C[C@H](C/C=C/C(C)(C)O)[C@H]1CC[C@@]2(C)[C@@H]3[C@@H](O[C@@H]4O[C@H](CO)[C@@H](O)[C@H](O)[C@H]4O)C=C4[C@@H](CC[C@H](O)C4(C)C)[C@]3(C=O)CC[C@]12C [Compound 14]																	58.5	16 to 64	19.8	39.3	IC50 [2, 30]: 16 to 64 µM; IC50 [3, 31]: 64.2 µM; IC50 [3, 37]: 64 to 256 µM; IC50 [4, 38]: 16 to 64 µM; IC50 [5, 27]: > 256 µM; IC50 [5, 28]: > 256 µM; IC50 [6, 27]: > 256 µM; IC50 [6, 28]: > 256 µM; IC50 [7, 33]: 171 µM; IC50 [7, 34]: 64 to 256 µM; IC50 [8, 35]: 32.8 µM; IC50 [8, 36]: 16 to 64 µM
CO[C@@H]1O[C@]23C=C[C@@H]4[C@@]1(CC[C@]1(C)[C@@H]([C@H](C)C/C=C/C(C)(C)OC)CC[C@@]41C)[C@@H]2CC[C@H](O)C3(C)C [Compound 15]	> 256	> 256		< 8	> 256	> 256			> 256	> 256	> 256	> 256	> 256	> 256	> 256	> 256			4.28	> 256	IC50 [4, 38]: > 256 µM
